tested on: Jurkat cells, No TCR; assay: Single SABR-II co-incubation, background without TCR; type: cell-based, human; settings: No TCR; Ext. Data Fig. 6C; 18-20 hr; technical replicate 1
Text: (§1) We performed systematic screening of the cloned TCRs against the I-Ag7 SABR-II library. Several TCRs along with a positive control (such as BDC2.5 or 4-8Ins) were screened individually against the library for each sort (Extended Data Fig. 6a and Supplementary Table 4). High- and low-confidence ES zones for each screened TCR were defined by the ES values of the control TCR’s cognate epitopes. For all putative cognate epitopes, single SABR-IIs were constructed, expressed in NFAT–GFP Jurkat cells and used for co-incubation with the corresponding TCRs. Co-incubation assays that yielded a GFP signal higher than that obtained in assays with no TCR were determined to be positive and the epitopes deemed true cognate ligands (Extended Data Fig. 6b,c). Using this strategy, we obtained epitopes in the high-confidence zone for eight TCRs (Fig. 3a and Extended Data Fig. 6b,d). Among numerous altered peptide ligands (APLs), these TCRs recognized the physiological InsC-ChgA HIP ([…] and analogs, recognized by TCR5, TCR6B, TCR9 and TCR34), InsC-Iapp HIP ([…] and analogs, recognized by TCR4 and TCR15) and InsB9:23 ([…] and analogs recognized by TCR24 and TCR37). These cognate high-confidence hits were validated using single SABR-II co-incubation assays (Fig. 3b and Extended Data Fig. 7a). Further validations using in vitro mouse interleukin-2 (mIL-2) secretion by TCR-expressing 5KC reporter cells[13] or CD25 expression by TCR-expressing splenic CD4^+ T cells upon stimulation with the cognate epitope were performed (Extended Data Fig. 7b,c). Furthermore, low-confidence hits were called for ten TCRs and tested in co-incubation assays.
(§2) For SABR library screens, 3 × 10^6 NFAT–GFP Jurkat cells expressing the SABR library were labeled with CellTrace Violet (BioLegend) according to the manufacturer’s protocol before incubation with 3 × 10^6 Jurkat cells expressing the TCR of interest. These mixtures were incubated in a six-well plate for 16–20 h. Cells were stained with anti-CD69-APC-Cy7 where indicated (BioLegend) and the top 1–2% of GFP^+CD69^+ cells were sorted for genomic DNA extraction, indexing and sequencing (see below). Multiplexed assays were scaled on a per-TCR basis (for example 3 × 10^6 for each of three TCRs against 9 × 10^6 library cells). For single SABR assays, unless otherwise defined, 5 × 10^5 SABR expressing NFAT–GFP Jurkat cells (or 5KC cells) were labeled with CellTrace Violet (BioLegend) according to the manufacturer’s protocol before incubation with 5 × 10^5 TCR-expressing Jurkat cells (or 5KC cells) in a round-bottom 96-well plate for 16–20 h. Cells were stained with anti-CD69-APC-Cy7 when indicated and acquired on the Attune NxT flow cytometer (Thermo Fisher Scientific). All flow analysis was performed using FlowJo (BD). For Daudi cell co-culture, 1 × 10^6 Jurkat cells expressing the TCR of interest were incubated with 1 × 10^6 Daudi cells expressing a SABR of interest for 3 days. On day 3, cells were labeled with anti-RT1B-PE and anti-Fas-APC-Cy7 before being acquired on the Attune NxT flow cytometer.

Going from EKAHHAIWARMDAKK to PGAGDLQTLALNAARDP, the “%GFP+CD69+ cells of SABR-NFAT-GFP-Jurkat cells” value (shortened to “%GFP+CD69+ cells”) rises from 0.95% to 2.65%.

With RRALQTLALNAARDP the “%GFP+CD69+ cells” value was 4.17%.

same assay, conditions: No TCR; Ext. Data Fig. 6C; 18-20 hr; technical replicate 2

Going from EKAHHAIWARMDAKK to PGAGDLQTLALNAARDP, the “%GFP+CD69+ cells” value rises from 0.84% to 2.56%.

RRALQTLALNAARDP was tested, and the “%GFP+CD69+ cells” value was 3.8%.

tested on: BDC2.5 TCR; assay: I-Ag7 SABR-II library screen, enrichment score; type: cell-based, mouse; settings: I-Ag7 library; EXPT1 of 8 biological experiments
Text: We then asked whether SABR-IIs could be used to present a library of epitopes for CD4^+ T cell antigen discovery. To that end, we constructed a SABR-II library to present epitopes derived from pancreatic islets in I-Ag7 by curating a list of 4,075 published epitopes from the Immune Epitope Database (iedb.org)[50] and a study by Wan et al.[51] (Supplementary Table 1). Of note, this defined library consisted of unmodified epitopes from endogenous proteins, synthetic mimotopes, deamidated epitopes and hybrid insulin peptides (HIPs) that arise from post-translational fusion and are not genetically encoded in vivo[52],[53]. The epitope library was inserted into the I-Ag7 SABR-II backbone through pooled oligonucleotide synthesis, amplification and ligation-free cloning (Extended Data Fig. 3a). The I-Ag7 SABR-II-library was then expressed in NFAT–GFP Jurkat cells. We confirmed that after sequencing, the library accounted for a mean of 708 reads per epitope (Extended Data Fig. 3b). As a proof of concept, we performed co-incubation assays with Jurkat cells expressing the BDC2.5 TCR and sorted the top 1–2% of GFP^+CD69^+ cells at a rate of ~20 min per replicate with three replicates per TCR. We extracted the genomic DNA from sorted cells, amplified the SABR portion of the integrated proviruses and subjected the amplicons to Illumina sequencing (Extended Data Fig. 3c,d). The 1–2% sort gate represents >50-fold enrichment of cognate epitopes with minimal loss of signal (Extended Data Fig. 3e–h). Sequence reads were aligned to the I-Ag7 SABR-II backbone and the corresponding epitopes were scored based on their read counts. For each TCR under investigation, an enrichment score (ES) was determined for all the epitopes in a library. In each experiment, three replicates of a sort with TCR-expressing Jurkat cells were performed and reads were counted post-sequencing. In addition, three replicates of the unsorted library were also sequenced. A linear regression model was built using the unsorted library counts and used to determine the expected abundance of each epitope in the library. The ES was calculated based on the difference between the measured and the expected abundance of each epitope on a per-TCR basis (Fig. 1e). Based on ES values, two quantitative thresholds were used to determine putative cognate epitopes of a given TCR. A high-confidence zone containing clear outliers with a high ES and a low-confidence zone containing weak outliers with a moderately high ES were determined (Fig. 1e). This two-tiered strategy was used to call putative hits from screens. All the top-scoring epitopes for the BDC2.5 TCR were known BDC2.5 ligands containing the WXRM(D/E) motif (Fig. 1f,g, enriched ligands in red), a well-characterized trait of the BDC2.5 TCR[43],[54]–[56]. Across several independent experiments there was limited variation in ES values for the same TCRs and several epitopes fell into high- or low-confidence zones consistently (Extended Data Fig. 4a). Using a different TCR that was isolated from NOD mice, 4-8Ins[57], which recognized the InsB9:23 epitope ([…]), we observed a similar pattern of ES for cognate epitopes (Extended Data Fig. 4b).
For SABR library screens, 3 × 10^6 NFAT–GFP Jurkat cells expressing the SABR library were labeled with CellTrace Violet (BioLegend) according to the manufacturer’s protocol before incubation with 3 × 10^6 Jurkat cells expressing the TCR of interest. These mixtures were incubated in a six-well plate for 16–20 h. Cells were stained with anti-CD69-APC-Cy7 where indicated (BioLegend) and the top 1–2% of GFP^+CD69^+ cells were sorted for genomic DNA extraction, indexing and sequencing (see below). Multiplexed assays were scaled on a per-TCR basis (for example 3 × 10^6 for each of three TCRs against 9 × 10^6 library cells). […]

Compared with “AAVRPLWVRMEAA [top putative hit of BDC2.5 TCR in I-Ag7 library]”, “AVRPLWVRME [top putative hit of BDC2.5 TCR in I-Ag7 library]” is higher in Enrichment score: 0.000742 for the first, 0.000751 for the second.

First: AVRPLWVRMEA [top putative hit of BDC2.5 TCR in I-Ag7 library]
Second: EKAHIPIWARMDAKK [top putative hit of BDC2.5 TCR in I-Ag7 library]
The Enrichment score of the first is lower: 0.000756 for the first, 0.001977 for the second.

same assay, conditions: I-Ag7 library; EXPT2 of 8

Compared with “AAVRPLWVRMEAA [top putative hit of BDC2.5 TCR in I-Ag7 library]”, “AVRPLWVRME [top putative hit of BDC2.5 TCR in I-Ag7 library]” is higher in Enrichment score: 0.000415 for the first, 0.000649 for the second.

Compared with “AVRPLWVRMEA [top putative hit of BDC2.5 TCR in I-Ag7 library]”, “EKAHIPIWARMDAKK [top putative hit of BDC2.5 TCR in I-Ag7 library]” is higher in Enrichment score: 0.000652 for the first, 0.00122 for the second.

same assay, conditions: I-Ag7 library; EXPT3 of 8

Compared with “AAVRPLWVRMEAA [top putative hit of BDC2.5 TCR in I-Ag7 library]”, “AVRPLWVRME [top putative hit of BDC2.5 TCR in I-Ag7 library]” is higher in Enrichment score: 0.000612 for the first, 0.001092 for the second.

Going from “AVRPLWVRMEA [top putative hit of BDC2.5 TCR in I-Ag7 library]” to “EKAHIPIWARMDAKK [top putative hit of BDC2.5 TCR in I-Ag7 library]”, the Enrichment score rises from 0.000955 to 0.003326.

same assay, conditions: I-Ag7 library; EXPT4 of 8

Compared with “AAVRPLWVRMEAA [top putative hit of BDC2.5 TCR in I-Ag7 library]”, “AVRPLWVRME [top putative hit of BDC2.5 TCR in I-Ag7 library]” is higher in Enrichment score: 0.000371 for the first, 0.001062 for the second.

Going from “AVRPLWVRMEA [top putative hit of BDC2.5 TCR in I-Ag7 library]” to “EKAHIPIWARMDAKK [top putative hit of BDC2.5 TCR in I-Ag7 library]”, the Enrichment score rises from 0.000753 to 0.002646.

same assay, conditions: I-Ag7 library; EXPT5 of 8

Compared with “AAVRPLWVRMEAA [top putative hit of BDC2.5 TCR in I-Ag7 library]”, “AVRPLWVRME [top putative hit of BDC2.5 TCR in I-Ag7 library]” is higher in Enrichment score: 0.0007 for the first, 0.001109 for the second.

Going from “AVRPLWVRMEA [top putative hit of BDC2.5 TCR in I-Ag7 library]” to “EKAHIPIWARMDAKK [top putative hit of BDC2.5 TCR in I-Ag7 library]”, the Enrichment score rises from 0.000651 to 0.002482.

same assay, conditions: I-Ag7 library; EXPT6 of 8

First: AAVRPLWVRMEAA [top putative hit of BDC2.5 TCR in I-Ag7 library]
Second: AVRPLWVRME [top putative hit of BDC2.5 TCR in I-Ag7 library]
The Enrichment score of the first is higher: 0.000851 for the first, 0.000835 for the second.

Compared with “AVRPLWVRMEA [top putative hit of BDC2.5 TCR in I-Ag7 library]”, “EKAHIPIWARMDAKK [top putative hit of BDC2.5 TCR in I-Ag7 library]” is higher in Enrichment score: 0.00121 for the first, 0.002979 for the second.

same assay, conditions: I-Ag7 library; EXPT7 of 8

Going from “AAVRPLWVRMEAA [top putative hit of BDC2.5 TCR in I-Ag7 library]” to “AVRPLWVRME [top putative hit of BDC2.5 TCR in I-Ag7 library]”, the Enrichment score rises from 0.000576 to 0.001173.

First: AVRPLWVRMEA [top putative hit of BDC2.5 TCR in I-Ag7 library]
Second: EKAHIPIWARMDAKK [top putative hit of BDC2.5 TCR in I-Ag7 library]
The Enrichment score of the first is lower: 0.001291 for the first, 0.003083 for the second.

same assay, conditions: I-Ag7 library; EXPT8 of 8

Compared with “AAVRPLWVRMEAA [top putative hit of BDC2.5 TCR in I-Ag7 library]”, “AVRPLWVRME [top putative hit of BDC2.5 TCR in I-Ag7 library]” is higher in Enrichment score: 0.000606 for the first, 0.001182 for the second.

Going from “AVRPLWVRMEA [top putative hit of BDC2.5 TCR in I-Ag7 library]” to “EKAHIPIWARMDAKK [top putative hit of BDC2.5 TCR in I-Ag7 library]”, the Enrichment score rises from 0.000826 to 0.003642.

tested on: TCR4; assay: Single SABR-II co-incubation, NFAT-GFP Jurkat; type: cell-based, mouse; settings: TCR 4; Ext. Data Fig. 6C; 18-20 hr; technical replicate 1
Text: as §1, §2

Going from PGAGDLQTLALNAARDP to RRALQTLALNAARDP, the “%GFP+CD69+ cells” value falls from 20.2% to 12.8%.

same assay, conditions: TCR 4; Ext. Data Fig. 6C; 18-20 hr; technical replicate 2

Compared with PGAGDLQTLALNAARDP, RRALQTLALNAARDP is lower in “%GFP+CD69+ cells” value: 20.4% for the first, 12.1% for the second.

tested on: TCR5; assay: Single SABR-II co-incubation, NFAT-GFP Jurkat; type: cell-based, mouse; settings: TCR 5; Ext. Data Fig. 6C; 18-20 hr; technical replicate 1
Text: as §1, §2

For EKAHHAIWARMDAKK, the “%GFP+CD69+ cells” value was 38%.

same assay, conditions: TCR 5; Ext. Data Fig. 6C; 18-20 hr; technical replicate 2

For EKAHHAIWARMDAKK, the “%GFP+CD69+ cells” value was 39.6%.

Source: PMC11093748, “De novo identification of CD4^+ T cell epitopes” (Nature Methods, 2024)
